Consider 124 compounds from a melting point compilation (Tetko et al.).

Take `CN(CC(=O)Nc1ccc(Cl)c(C(F)(F)F)c1)C(=O)CCl`: the melting point – broadly, the temperature, or range, at which the solid turns liquid – was in the range of 164 to 165 °C.

In turn, `O=C(c1cc(Cl)ccc1[N+](=O)[O-])N1CCCC1` displayed a melting point of 157 to 159 °C.

Consider `N#CCn1cc(N)cn1`, for which the melting point fell in the range of 71 to 73 °C.

`c1cncc(CNc2nc3ccccc3[nH]2)c1` returned a melting point of 177 to 179 °C.

`BrCCC12CC3CC(CC(C3)C1)C2` showed a melting point of 56 to 58 °C.

On to `NC(=O)OCC(F)(F)F`, for which the melting point was 42 to 44 °C.

Regarding `CC(C)(C)Sc1ccc(C(N)=S)cc1`, the melting point was in the range of 163 to 165 °C.

With `Cc1ccc(-n2c(C)ccc2C)cc1N`, the melting point is 83 to 85 °C.

`Nc1ccc(Cl)cc1C(=O)NC1CC1` came in with a melting point of 147 to 149 °C.

Take `Cc1cc(=O)c(C(=O)O)nn1-c1ccccc1[N+](=O)[O-]`: the melting point lay within 240 to 242 °C.

As for `CC(C)c1nnc(N)[nH]1`, the melting point lay in the range of 108 to 110 °C.

`Cc1cc(C)c(C(=O)O)c(Cl)n1`: the melting point is 78 to 82 °C.

Compound `Nc1ccc(OCC(F)(F)F)cc1` showed a melting point of 66 to 68 °C.

In the case of `O=C1CCc2c(F)ccc(F)c21`, the melting point is 117 to 119 °C.

Compound `COC(=O)c1cccc(OCC(N)=NO)c1` yielded a melting point of 134 to 136 °C.

Compound `CNC1CCN(C2CCOCC2)CC1` had a melting point of 32 to 34 °C.

On to `CC(C)(C)OC(=O)N1CCC(C(=O)O)(n2cccn2)CC1`, for which the melting point was 159 to 161 °C.

Turning to `CCOC(=O)c1sc(NC(=O)CCl)c(C(=O)OC(C)(C)C)c1C`, the melting point is 148 to 150 °C.

With `O=C(O)CCCOc1cccc(Br)c1`, the melting point was in the range of 50 to 52 °C.

On to `CSc1nc2cnccc2o1`, for which the melting point lay in the range of 85 to 87 °C.

For the compound `Nc1ccc(-c2ncno2)cc1`, the melting point was in the range of 99 to 101 °C.

`Nn1cn[nH]c1=O` gave a melting point of 169 to 171 °C.

In turn, `Sc1nnc(-c2ccc(Cl)cc2)o1` showed a melting point of 88 to 90 °C.

For `COc1ccc(C(=O)c2ccccc2C(=O)O)cc1F`, the melting point lay within 147 to 149 °C.

`O=C(O)c1cccc2[nH]ncc12` displayed a melting point of 285 to 287 °C.

Consider `O=C(O)Cc1sc(-c2ccccc2)nc1-c1cccs1`, for which the melting point was in the range of 117 to 119 °C.

With `Oc1ccc(-c2nnc[nH]2)cc1`, the melting point was in the range of 244 to 246 °C.

Take `Cn1cc(C(=O)O)c(C2CCCCC2)n1`: the melting point was 157 to 159 °C.

The compound `Cc1ccc(-n2c(-c3ccccc3)cnc2S)c(C)c1` came in with a melting point of 247 to 249 °C.

The compound `COc1cc(NC(=O)C2CCCC2)c(C(=O)O)cc1OC` displayed a melting point of 193 to 195 °C.

The compound `CN(CC(=O)Nc1ccc(F)cc1)C(=O)CCl` displayed a melting point of 159 to 161 °C.

For the compound `O=C(O)c1ccc2c3c(cccc13)CC2`, the melting point was 220 to 223 °C.

`Cc1ccc(NC(=O)OC(C)(C)C)s1`: the melting point was 103 to 105 °C.

Compound `O=C(O)C1CC1c1c(F)cccc1F` (centres undefined) gave a melting point of 89 to 91 °C.

`COc1cccc(COCC(N)=NO)c1`: the melting point fell in the range of 59 to 61 °C.

Turning to `Cc1ccccc1CCNC(=O)C(C)Cl` (centres undefined), the melting point was 59 to 61 °C.

As for `O=[N+]([O-])c1cnccc1NC1CC1`, the melting point was in the range of 105 to 107 °C.

Regarding `Cc1c(Cl)cccc1-n1c(S)nnc1-c1ccncc1`, the melting point was 322 to 324 °C.

On to `Nc1cccc(-c2ccc3c(c2)OCCO3)n1`, for which the melting point fell in the range of 117 to 119 °C.

As to `O=C1c2ccc([N+](=O)[O-])cc2C(=O)N1c1ccncc1`, the melting point was in the range of 259 to 261 °C.

In turn, `Cc1nn(C)c(C)c1CC(N)=O` displayed a melting point of 175 to 177 °C.

Compound `NNC(=O)NC1CC1` showed a melting point of 64 to 66 °C.

As for `COc1ccc(C(=O)C(C)Br)c(OC)c1` (centres undefined), the melting point lay within 66 to 68 °C.

With `NC(=S)CN1CCOCC1`, the melting point fell in the range of 178 to 180 °C.

In turn, `Cc1cccc(-n2cc(C(=O)CCl)nn2)c1` showed a melting point of 141 to 143 °C.

On to `CSc1ncc[nH]1`, for which the melting point is 129 to 131 °C.

Regarding `OCc1ccc2cn[nH]c2c1`, the melting point is 158 to 160 °C.

In the case of `O=C(O)CCCSc1nc2ccccc2s1`, the melting point fell in the range of 103 to 105 °C.

The compound `COC(=O)Cn1cnc(N)n1` returned a melting point of 136 to 138 °C.

Compound `CC(C)n1nnnc1S` had a melting point of 89 to 91 °C.

`Cc1ccc(C(=O)O)cc1S(C)(=O)=O` showed a melting point of 209 to 211 °C.

`O=C1CC(C2CCCCN2)CN1` (centres undefined) displayed a melting point of 62 to 64 °C.

In turn, `Cn1nc(Br)c2c(NCCN)ncnc21` showed a melting point of 120 to 122 °C.

Take `OC1(Cc2ccc(F)cc2)CCNC1` (centres undefined): the melting point was in the range of 73 to 75 °C.

Take `Sc1nnc(SCc2ccccc2Cl)[nH]1`: the melting point is 132 to 135 °C.

Turning to `CC(N)c1ccc(-c2cccnc2)cc1` (centres undefined), the melting point was 47 to 49 °C.

Compound `O=C(O)CCSc1ccccc1F` displayed a melting point of 118 to 120 °C.

For `CSCc1c(C(=O)O)sc2ccccc12`, the melting point fell in the range of 201 to 203 °C.

On to `Cc1ccccc1-c1cc(N)n(C)n1`, for which the melting point fell in the range of 97 to 99 °C.

Compound `Clc1ncc(-c2ccccc2)s1` gave a melting point of 40 to 42 °C.

Turning to `Cc1c(C2CC2)nc2ccc(Br)cc2c1C(=O)O`, the melting point lay within 218 to 220 °C.

As for `CN(C)c1ccc(N2C(=O)CSC2=S)cc1`, the melting point lay in the range of 138 to 140 °C.

Compound `Cc1cc(C(=O)CCl)c(C)s1` had a melting point of 53 to 57 °C.

In the case of `O=C(O)Cn1cc(C2CC2)nn1`, the melting point lay within 183 to 185 °C.

Compound `Cn1c(S)nc2ccccc21` yielded a melting point of 190 to 194 °C.

On to `O=C(CN1CCNCC1)N1CCCc2ccccc21`, for which the melting point is 64 to 66 °C.

The compound `CN1CCN(CCc2ccc(N)cc2)CC1` yielded a melting point of 64 to 66 °C.

With `CN(C)S(=O)(=O)c1ccc(N)nc1`, the melting point lay in the range of 150 to 152 °C.

The compound `N#Cc1ccc(C=CC(=O)O)cc1` returned a melting point of 250 to 252 °C.

For the compound `O=C(O)c1ccc(-c2ccc(Cl)cc2)s1`, the melting point was 260 to 262 °C.

Compound `CC(=O)Oc1ccc2ccc(O)cc2c1` came in with a melting point of 157 to 159 °C.

Take `Cc1ccc(C)c(SCC(=O)O)c1`: the melting point fell in the range of 73 to 75 °C.

Take `Nc1cc(N)c(F)cc1F`: the melting point lay within 111 to 113 °C.

As to `Brc1ccn2nccc2n1`, the melting point was in the range of 131 to 133 °C.

`Cc1cc(-c2ccccc2)nc2cc(O)nn12` had a melting point of 231 to 233 °C.

Compound `Nc1nc(Cc2ccccc2Br)cs1` registered a melting point of 115 to 117 °C.

In the case of `N#CCCCS(=O)(=O)c1ccc(C(=O)O)cc1`, the melting point was in the range of 195 to 197 °C.

Take `CC(C)(C)NS(=O)(=O)c1cc(C(=O)O)ccc1F`: the melting point lay within 182 to 184 °C.

The compound `Cc1cc(C=O)c(C)n1-c1ccnn1C(C)C` yielded a melting point of 77 to 79 °C.

As for `O=S(=O)(Cl)c1ccc(Cl)c2ccccc12`, the melting point is 90 to 92 °C.

In turn, `COc1ccc2c(c1)C(=O)CCN2` registered a melting point of 114 to 116 °C.

`CC(C(=O)Nc1cccc(N)c1)n1cccn1` (centres undefined) gave a melting point of 135 to 137 °C.

Consider `C=CCNC(=O)NC(=O)C(C)Cl` (centres undefined), for which the melting point lay in the range of 68 to 70 °C.

With `CC(C)(C)C(O)CN` (centres undefined), the melting point lay within 64 to 66 °C.

Take `CC(C)n1ncc2ccc(N)cc21`: the melting point lay within 144 to 146 °C.

Turning to `Nc1[nH]ncc1CCCO`, the melting point was 88 to 90 °C.

Turning to `Cc1ccc(N2C(=O)CCC(C(=O)O)C2c2cccs2)cc1` (centres undefined), the melting point was 249 to 251 °C.

With `CN(C)c1ccc(C(=O)O)cc1[N+](=O)[O-]`, the melting point was in the range of 198 to 200 °C.

With `Cc1ccc(-c2csc(Cl)n2)cc1`, the melting point was 93 to 95 °C.

The compound `CC(C)(C)CC(=O)NN` came in with a melting point of 51 to 53 °C.

With `Cc1cc(N)n(-c2nc3ccccc3o2)n1`, the melting point lay within 221 to 223 °C.

Consider `Nc1ncc(-c2cccc(Cl)c2)s1`, for which the melting point lay within 143 to 145 °C.

In turn, `CC1C(=O)Nc2cc(C(=O)O)ccc2N1C` (centres undefined) returned a melting point of 289 to 291 °C.

The compound `CNC(=O)c1ccc(S(=O)(=O)Cl)cc1` had a melting point of 125 to 130 °C.

In the case of `O=C(O)c1nn(-c2ccccc2)c2c1CCCCC2`, the melting point was 171 to 173 °C.

As to `CC(C)(NC(=O)c1ccccc1)C(N)=S`, the melting point lay in the range of 165 to 167 °C.

Regarding `O=C(O)c1sccc1S(=O)(=O)C(F)F`, the melting point was 121 to 123 °C.

With `NC(Cn1cncn1)c1ccccc1` (centres undefined), the melting point is 87 to 89 °C.

With `Cc1cc(C)n(-c2ccc(C(F)(F)F)cc2N)n1`, the melting point lay in the range of 85 to 87 °C.

`Cc1cccc(NC2CCNCC2)n1`: the melting point fell in the range of 85 to 87 °C.

Take `O=c1[nH]cnc2cc(F)c(F)cc12`: the melting point was 264 to 266 °C.

With `CN1C(=O)CC(C(=O)O)C1c1ccccc1` (centres undefined), the melting point lay within 126 to 128 °C.

With `CC1Cc2ccccc2N1S(N)(=O)=O` (centres undefined), the melting point was in the range of 67 to 69 °C.

`O=C(O)c1cc(S(=O)(=O)Nc2ccc(Br)cc2)ccc1Cl` showed a melting point of 217 to 219 °C.

Take `CNCc1nc(-c2ccccc2)c[nH]1`: the melting point was in the range of 117 to 119 °C.

On to `O=C(O)CNC(=O)CNS(=O)(=O)Cc1ccc(F)cc1`, for which the melting point was 198 to 200 °C.

The compound `Cc1nnc(S)n1-c1ccccc1` displayed a melting point of 224 to 226 °C.

`COc1cc(S(N)(=O)=O)c(OC)cc1N` registered a melting point of 203 to 205 °C.

On to `O=[N+]([O-])c1ccc(OCC(F)(F)F)cc1`, for which the melting point was in the range of 73 to 75 °C.

On to `Nc1ccc(-c2nc3ccc(N)cc3[nH]2)cc1`, for which the melting point lay in the range of 234 to 236 °C.

The compound `O=C(O)CS(=O)(=O)Cc1cccc(Br)c1` had a melting point of 173 to 175 °C.

`CC(Cl)C(=O)Nc1cccc(S(=O)(=O)N2CCCCC2)c1` (centres undefined) yielded a melting point of 163 to 165 °C.

For `COc1ccc(C2C(C(=O)O)CCC(=O)N2c2ccc(C)cc2)cc1` (centres undefined), the melting point is 201 to 203 °C.

In turn, `CC(=O)c1c(C)nsc1N` yielded a melting point of 183 to 185 °C.

Compound `CCOc1cc(C(=O)O)ccc1OCc1cccnc1` registered a melting point of 185 to 187 °C.

The compound `CC(CC(=O)O)c1ccncc1` (centres undefined) showed a melting point of 171 to 173 °C.

The compound `O=C(O)C(O)C1CCOCC1` (centres undefined) returned a melting point of 79 to 81 °C.

`CC(Sc1ncn[nH]1)C(=O)O` (centres undefined) came in with a melting point of 173 to 175 °C.

Compound `NNC(=S)Nc1ccccc1F` yielded a melting point of 159 to 161 °C.

With `CNC(=O)c1cccc(CCC(=O)O)c1`, the melting point lay within 119 to 121 °C.

Take `O=C(c1cccs1)c1cccc2ccccc12`: the melting point was in the range of 65 to 67 °C.

The compound `O=C(NO)C1CC1` displayed a melting point of 127 to 129 °C.

For `O=C(O)c1cc(F)ccc1N1CCOCC1`, the melting point lay in the range of 158 to 160 °C.

With `NNC(=O)C(=O)Nc1ccccn1`, the melting point was 179 to 181 °C.
